Assay results from patent publication US20140296223A1, “METHOD FOR REGULATING SKIN PIGMENTATION” (THE GENERAL HOSPITAL CORPORATION, priority 2011, published 2014).

Tests used:
[1] = test system: Microphthalmia Transcription Factor (MITF); assay: TRPM1-luciferase reporter screen for MITF antagonists in Skme15 melanoma cells; type: cell-based, human; conditions: for IC50: IC50 (described formally as qAC50), half-maximal suppression dose, unit inferred, text says potencies around 1 uM; for Conc. At Maximal Activity / Maximal Activity: dose titration; for Conc. At Maximal Activity: unit not given, in M (unit assumed); for Maximal Activity: maximal suppression of TRPM1-luciferase at any dose; for Z-Score: screen, suppression of TRPM1-luciferase activity, Skme15 cells
Text: In order to carry out a successful MITF antagonist screen, the inventors utilized a TRPM1-luciferase reporter. […] Therefore, the TRPM1-luciferase reporter stably integrated into melanoma cells is effective for the screening assay. The use of melanoma cells, while less perfectly relevant than primary human melanocytes, afforded the advantages of speed and reproducibility for the screen.
In order to engineer a screen which broadly suppress MITF activity either by suppression of MITF expression or by inhibition of MITF activity, the inventors utilized a luciferase reporter containing the promoter of a strong direct transcriptional target of MITF, i.e., TRPM1 gene, the inventors have identified the active ingredients having the ability of inhibiting the expression or activation of Microphthalmia Transcription Factor (MITF) for medical or esthetic benefit. The inventors have previously identified the TRPM1 gene (also called “Melastatin”) as a direct target of MITF, which contains numerous MITF binding sites, and which directly responds in potent fashion to MITF overexpression (Miller A J, Du J, Rowan S, Hershey C L, Widlund H R, Fisher D E: Transcriptional regulation of the melanoma prognostic marker melastatin (TRPM1) by MITF in melanocytes and melanoma, Cancer Res 2004, 64:509-516). TRPM1 expression also correlates closely to MITF expression within human melanoma cell lines, as well as in clinical pigmented lesions (nevi and melanomas).
The TRPM1 promoter was ligated to the luciferase gene and inserted into a retroviral vector as well as a lentiviral vector. The lentiviral vector was used to infect primary human melanocytes, which then was subjected to a primary screen using the Broad Chemical Genetics core screening facility, and its natural products/extracts libraries. As backup, the retroviral vector was used to stably integrate into the genome of melanoma cells, which can be used for the identical small molecule screen. Screen optimization was carried out using forskolin and MSH as positive control small molecules (which upregulate cAMP and MITF expression (D'Orazio J A, Nobuhisa T, Cui R, Arya M, Spry M, Wakamatsu K, Igras V, Kunisada T, Granter S R, Nishimura E K, Ito S, Fisher D E: Topical drug rescue strategy and skin protection based on the role of Mc1r in UV-induced tanning, Nature 2006, 443:340-344)). Small molecules which suppress MSH induced TRPM1-luciferase without altering cell numbers or viability, represent initial “hits” in this screen. Negative control includes a constitutive luciferase vector within the same cells (eg driven by a constitutive promoter such as thymidine kinase promoter), to control for nonspecific inhibitors of basal transcriptional machinery-something which would otherwise be assessed in detail during secondary/tertiary analyses of candidate hits.
The human melanoma cell line Skme15 was utilized due to the advantageous growth properties as well as the inventors' prior experience that Skme15 expresses a typical level of MITF protein. […] Therefore, an integrated TRPM1-luciferase reporter was generated, and the subsequent cells were cloned twice (serially) to assure purity of the reporter cell population. Cells were maintained in drug selection to assure maintenance of the luciferase reporter (when drug was omitted, eventual loss of the luciferase signal was observed). Following re-cloning, distinct isolates were selected for further use on the basis of clonogenic growth on 384 well plates, as required for the small molecule screen. A positive control for suppression of TRPM1-luciferase signal utilized: a lentivirus encoding shRNA against MITF. […] The day-to-day variability in plating efficiency was analyzed, and found very high reproducibility in the line which was selected for further use in the screen.
The screen was carried out with a library from the Broad Institute comprising a mixture of natural products, known bioactives, and additional compounds (a total of about 13,000 compounds). […]

Skme15 = assay: Toxicity with fluorescence viability probe (CellTiter-Fluo Cell Viability Assay); type: cell-based, human; conditions: composite of the variation between drug-treated and control divided by the standard error
Procedure: Although the shape of the dose-response can vary among hits, the inventors chose to include all candidates which produce dose-dependent effects. The fourth criterion which was determined is the IC50 (described formally as qAC50) which represents the half-maximal suppression dose. Most of the candidate hits resided in the high nanomolar to low micromolar range by this criterion (all of these validation data are listed in Table 1). The fifth criterion was maximal suppression (at any dose), which represented the magnitude of suppression which was attainable regardless of the dose required to achieve it. […] The sixth criterion to be determined is the Log P partition coefficient, which is a predictor of lipophilicity. For this, the inventors have used the method of Ghose and Crippen to calculate the predicted octanol-water partition coefficient (J. Comp. Chem. 9, 80(1988)). While this is only an estimate of potential skin penetration, the analysis was carried out because it helps in prioritizing likelihood of topical effectiveness, in theory. The seventh criterion was an analysis of toxicity utilizing a fluorescence viability probe (CellTiter-Fluo™ Cell Viability Assay (Promega)). Interpretation of this endpoint is complicated by the fact that it represents a composite of the variation between drug-treated and control divided by the standard error The results shown in Table 1 indicate 34 candidate molecules which satisfied all of the criteria outlined above. […] Most of their potencies ranged slightly below or above 1 uM. While the lipophilicity scores remain imperfect predictors of skin penetration capability. However, numbers of >3 can be more likely to penetrate.

| SMILES | IC50 [1] | Conc. At Maximal Activity [1] | Maximal Activity [1] | Z-Score [1] | Viability z-score (treated minus control, divided by standard error) (Skme15) |
| --- | --- | --- | --- | --- | --- |
| Cc1ccc(C23C[C@@H]4C[C@@H](CC(CN)(C4)C2)C3)cc1C [1-[(1S,3R,5R,7S)-3-(3,4-dimethylphenyl)adamantan-1-yl]methanamine] | 2.48 µM | 6.00E−06 | −149 | −10.8562 | −1.015 |
| COc1ccc2c(c1)OC1COc3cc(OC)c(OC)cc3C1C2=O (stereo not drawn) [2,3,9-trimethoxy-6a,12a-dihydrochromoeo[3,4-b]chromen-12(6H)-one] | 5.38 µM | 1.20E−05 | −320.4 | −9.245 | −4.2731 |
| COc1ccc([N+](=O)[O-])cc1NC(=O)COc1ccc(C(C)(C)C)cc1Br [2-(2-bromo-4-tert-butylphenoxy)-N-(2-methoxy-5-nitrophenyl)acetamide] | – | – | – | −12.0562 | −1.6406 |
| Cc1oc2c(c1C(=O)N1CCC(C)CC1)C(=O)c1ccccc1C2=O [2-methyl-3-[(4-methylpiperidin-1-yl)carbonyl]naphtho[2,3-b]furan-4,9-dione] | – | – | – | −9.924 | 0.1575 |
| O=C(O)CCSc1nc2ccccc2s1 [3-(1,3-benzothiazol-2-ylthio)propanoic acid] | – | – | – | −9.79 | −1.5092 |
| O=C(O)c1cccc(COc2ccc(CO)cc2Cl)c1 [3-{[2-chloro-4-(hydroxymethyl)phenoxy]methyl}benzoic acid] | – | – | – | −9.909 | −1.5092 |
| COc1cc(CO)ccc1OCc1cccc(C(=O)O)c1 [3-{[4-(hydroxymethyl)-2-methoxyphenoxy]methyl}benzoic acid] | – | – | – | −10.9296 | −1.6406 |
| Cc1ccc(OCC(=O)Nc2cccc(C(=O)O)c2)c(Br)c1 [3-{[(2-bromo-4-methylphenoxy)acetyl]amino}benzoic acid] | – | – | – | −10.0837 | −1.5092 |
| CCOc1ccc(OCC(=O)Nc2cccc(C(=O)O)c2)cc1 [3-{[(4-ethoxyphenoxy)acetyl]amino}benzoic acid] | – | – | – | −9.9 | −1.5092 |
| COc1cc(C(=O)Nc2cc(-c3nc4ncccc4o3)ccc2C)ccc1OCc1ccc(Cl)cc1 [4-[(4-chlorobenzyl)oxy]-3-methoxy-N-(2-methyl-5-[1,3]oxazolo[4,5-b]pyridin-2-ylphenyl)benzamide] | – | – | – | −9.256 | – |
| Clc1ccc(C2=NN=C(N3CCCC3)SC2)cc1 [5-(4-chlorophenyl)-2-pyrrolidin-1-yl-6H-1,3,4-thiadiazine] | – | – | – | −9.961 | −0.2442 |
| CC(C)(C)c1ccc(C(=O)N2CCN(c3ccc([N+](=O)[O-])c(NCc4cccnc4)c3)CC2)cc1 [5-[4-(4-tert-butylbenzoyl)piperazin-1-yl]-2-nitro-N-(pyridin-3-ylmethyl)aniline] | – | – | – | −9.588 | −0.8893 |
| Cc1ccc(C)c(C(Nc2ccccn2)c2cc(Cl)c3cccnc3c2O)c1 (stereo not drawn) [5-chloro-7-[(2,5-dimethylphenyl)(pyridin-2-ylamino)methyl]quinolin-8-ol] | – | – | – | −8.461 | −0.8893 |
| Oc1c(C(Nc2ccccn2)c2c(F)cccc2Cl)cc(Cl)c2cccnc12 (stereo not drawn) [5-chloro-7-[(2-chloro-6-fluorophenyl)(pyridin-2-ylamino)methyl]quinolin-8-ol] | – | – | – | −9.327 | −2.226 |
| c1ccc(-c2cnc3nonc3n2)cc1 [5-phenyl[1,2,5]oxadiazolo[3,4-b]pyrazine] | – | – | – | −9.989 | −0.0206 |
| O=c1[nH]c(=O)n(Cc2ccco2)c2c1C(C(F)(F)F)(C(F)(F)F)N=C(c1ccc(F)cc1)N2 [7-(4-fluorophenyl)-1-(2-furylmethyl)-5,5-bis(trifluoromethyl)-5,8-dihydropyrimido[4,5-d]pyrimidine-2,4(1H,3H)-dione] | – | – | – | −8.791 | −2.0352 |
| CC(C)(C)[C@H]1CC[C@@]2(CC1)[C@@H](C#N)[C@]2(C#N)C(=O)c1ccccc1 [(1S,2R,3S,6S)-1-benzoyl-6-tert-butylspiro[2.5]octane-1,2-dicarbonitrile] | 5.69 µM | 1.95E−05 | −274.1 | −11.0899 | 0.4824 |
| CCOC(=O)c1c(C)n(Cc2ccccc2)c2ccc(OCC(O)CNC(C)(C)C)cc12 (stereo not drawn) [Ethyl-1-benzyl-5-[3-(tert-butylamino)-2-hydroxypropoxy]-2-methyl-1H-indole-3-carboxylate] | – | – | – | −7.844 | −2.519 |
| CCOC(=O)COc1cccc(-c2nc3ccccc3s2)c1 [Ethyl-[3-(1,3-benzothiazol-2-yl)phenoxy]acetate] | – | – | – | −9.663 | −0.0206 |
| Cc1cccc(-c2nnc(SCC(=O)Nc3ccccc3F)o2)c1 [N-(2-fluorophenyl)-2-{[5-(3-methylphenyl)-1,3,4-oxadiazol-2-yl]thio}acetamide] | – | – | – | −10.7661 | −0.0206 |
| O=C(NCCCc1ccccc1)N1c2ccccc2Sc2ccccc21 [N-(3-phenylpropyl)-10H-phenothiazine-10-carboxamide] | – | – | – | −9.495 | −4.128 |
| O=C(CSc1nc2cc([N+](=O)[O-])ccc2[nH]1)Nc1cc(C(F)(F)F)cc(C(F)(F)F)c1 [N-[3,5-bis(trifluoromethyl)phenyl]-2-[(5-nitro-1H-benzimidazol-2-yl)thio]acetamide] | – | – | – | −10.0284 | – |
